Among the data in PubChem BioAssay (NCI) are GI50 and TGI values, retold here.

Some test systems named below: UO-31 renal; COLO 205 colon; SK-MEL-5 melanoma; UACC-62 melanoma; MOLT-4 leukemia; RXF 393 renal; TK-10 renal; EKVX NSCLC; MDA-MB-435; M14 melanoma.
What all share (test): NCI-60 cell line screen, 48 h

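Cells were grown in 96-well plates and exposed to each compound for 48 hours at five concentrations; endpoints were interpolated linearly between bracketing concentrations, or set to the highest concentration if not reached. The concentration for 50% growth inhibition is given as GI50. TGI: concentration producing complete growth inhibition.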

As to `O=C(Nc1ccccc1)Nc1ccc2cc3ccc(NC(=O)Nc4ccccc4)cc3nc2c1`, the GI50 in the assay with UO-31 renal was over 100 µM; in the assay with COLO 205 colon, 0.573 µM; with SK-MEL-5 melanoma, 1.65 µM; in the assay with UACC-62 melanoma, 1.75 µM; in the assay with MOLT-4 leukemia, 0.559 µM; in the assay on RXF 393 renal, 1.49 µM. The GI50 in the assay on TK-10 renal is 3.98 µM; in the assay on EKVX NSCLC, 4.29 µM; with MDA-MB-435, 1.68 µM. Also, the TGI in the assay on UO-31 renal is over 100 µM; with COLO 205 colon, 1.88 µM; in the assay on SK-MEL-5 melanoma it was 3.11 µM; in the assay with UACC-62 melanoma, 3.21 µM; in the assay on MOLT-4 leukemia it was 2.13 µM; with RXF 393 renal it was 3.61 µM. Besides, the TGI in the assay with TK-10 renal was 9.12 µM; in the assay on EKVX NSCLC, over 100 µM; with MDA-MB-435, 3.15 µM.

Consider `COCc1c(-c2cc3cc(C)cc(OC)c3s2)c2c(N)ncnn2c1CN1CCNC(=O)C1`, for which the GI50 is 1.76 µM in the assay with UO-31 renal; 4.12 µM in the assay with M14 melanoma; 5.13 µM in the assay on COLO 205 colon; 6.16 µM with SK-MEL-5 melanoma; 4.08 µM in the assay with UACC-62 melanoma; 3.22 µM with MOLT-4 leukemia. For the same compound, the GI50 is 3.64 µM in the assay with TK-10 renal, 2.67 µM in the assay on EKVX NSCLC and 4.29 µM with MDA-MB-435. For the same compound, the TGI in the assay with UO-31 renal stood at 11.9 µM; in the assay on M14 melanoma, 35.4 µM; in the assay on COLO 205 colon it was 24.4 µM; with SK-MEL-5 melanoma, 18.6 µM; with UACC-62 melanoma, 23.5 µM; in the assay with MOLT-4 leukemia, 48.5 µM. Moreover, the TGI was found to be 30.6 µM in the assay with TK-10 renal, 29.8 µM in the assay on EKVX NSCLC and 24 µM in the assay with MDA-MB-435.

For `COC(=O)[C@H](Cc1cnc[nH]1)NC(=O)[C@@H](NC(=O)Nc1cc(C(F)(F)F)cc(C(F)(F)F)c1)C(C)C`, the GI50 in the assay on UO-31 renal is 15 µM; in the assay on M14 melanoma, 16.8 µM; in the assay with COLO 205 colon, 15.2 µM; in the assay with SK-MEL-5 melanoma it was 17.1 µM; with UACC-62 melanoma, 13.9 µM; in the assay on MOLT-4 leukemia, 12.5 µM. Besides, the GI50 in the assay on RXF 393 renal is 13.6 µM; in the assay with TK-10 renal, 16.6 µM; in the assay on MDA-MB-435 it was 17.3 µM. In addition, the TGI in the assay with UO-31 renal was found to be 29.5 µM; in the assay on M14 melanoma it was 34 µM; with COLO 205 colon, 29.4 µM; in the assay with SK-MEL-5 melanoma, 31.1 µM; with UACC-62 melanoma it was 27.2 µM; in the assay on MOLT-4 leukemia, 32.2 µM. For the same compound, the TGI in the assay with RXF 393 renal amounted to 27.5 µM; in the assay on TK-10 renal, 30.7 µM; in the assay on MDA-MB-435, 34.3 µM.

In the case of `CC(N)(Cc1c[nH]c2cccc(F)c12)C(=O)O` (stereo unspecified), the GI50 in the assay with UO-31 renal is 138 µM; with M14 melanoma it was over 1000 µM; in the assay with SK-MEL-5 melanoma, over 1000 µM; in the assay on UACC-62 melanoma, over 1000 µM; with MOLT-4 leukemia, over 1000 µM; in the assay on RXF 393 renal it was over 1000 µM. Besides, the GI50 in the assay on TK-10 renal, in the assay with EKVX NSCLC and with MDA-MB-435 was over 1000 µM in each case. For the same compound, the TGI in the assay on UO-31 renal, in the assay on M14 melanoma, in the assay with SK-MEL-5 melanoma, with UACC-62 melanoma, with MOLT-4 leukemia and in the assay on RXF 393 renal was over 1000 µM each time. The TGI with TK-10 renal, with EKVX NSCLC and in the assay on MDA-MB-435 was over 1000 µM in each case.

On to `Nc1ccc(C2=CC(c3ccc(Cl)cc3)N3C=CSC3=N2)cc1` (stereo unspecified), for which the GI50 was 2.33 µM in the assay on UO-31 renal; 2.86 µM in the assay with M14 melanoma; 8.59 µM in the assay on COLO 205 colon; 5.67 µM in the assay with SK-MEL-5 melanoma; 4.4 µM in the assay on UACC-62 melanoma; 4.03 µM with MOLT-4 leukemia. For the same compound, the GI50 in the assay on RXF 393 renal was 2.03 µM; in the assay on TK-10 renal, 11 µM; in the assay with MDA-MB-435 it was 2.43 µM. The TGI came to 11 µM in the assay on UO-31 renal; 7.43 µM in the assay with M14 melanoma; 20.6 µM in the assay with COLO 205 colon; 19.2 µM in the assay on SK-MEL-5 melanoma; 18.1 µM in the assay on UACC-62 melanoma; 89.7 µM with MOLT-4 leukemia. For the same compound, the TGI in the assay with RXF 393 renal turned out to be 4.18 µM; with TK-10 renal, 28.5 µM; with MDA-MB-435, 6.76 µM.

Take `O=C(/C=C\c1ccc([N+](=O)[O-])cc1)c1ccccc(=O)c1O`: the TGI is 3.3 µM with UO-31 renal; 6.5 µM in the assay with M14 melanoma; 0.967 µM with COLO 205 colon; 2.38 µM with SK-MEL-5 melanoma; 3.13 µM with UACC-62 melanoma; over 21.8 µM with MOLT-4 leukemia. The values for the TGI in the assay on TK-10 renal, in the assay with EKVX NSCLC and with MDA-MB-435 were 8.91 µM, 11.9 µM and 7.55 µM, respectively.

As to `COC12C=C/C(=C(/C(=O)OCc3ccccn3)C(=O)CCCCCCCCC3(OC)C=C/C(=C(/C(=O)OCc4ccccn4)C(=O)CCCCCCCC1)O3)O2`, the GI50 in the assay on M14 melanoma is 0.252 µM; with SK-MEL-5 melanoma, 0.221 µM; in the assay with UACC-62 melanoma it was 0.348 µM; with MOLT-4 leukemia, 0.301 µM; in the assay with RXF 393 renal, 0.192 µM; in the assay on TK-10 renal, 1.69 µM. The GI50 was 0.614 µM with EKVX NSCLC and 0.209 µM in the assay with MDA-MB-435. Further, the TGI is 0.571 µM with M14 melanoma; 0.492 µM in the assay with SK-MEL-5 melanoma; 1.22 µM with UACC-62 melanoma; over 100 µM in the assay with MOLT-4 leukemia; 0.357 µM with RXF 393 renal; 4.19 µM in the assay with TK-10 renal. In addition, the TGI is 3.72 µM with EKVX NSCLC and 0.48 µM with MDA-MB-435.

For `COc1ccc2c(c1)c(-c1nc(-c3c[nH]c4ccncc34)cs1)cn2C`, the GI50 in the assay with UO-31 renal is 1.58 µM; with M14 melanoma, 1.78 µM; in the assay with SK-MEL-5 melanoma, 1.65 µM; in the assay on UACC-62 melanoma, 1.82 µM; with RXF 393 renal, 1.49 µM; in the assay with TK-10 renal, 1.88 µM. For the same compound, the results for the GI50 with EKVX NSCLC and in the assay with MDA-MB-435 were 1.76 µM and 1.59 µM, respectively. Further, the TGI with UO-31 renal was found to be 2.97 µM; in the assay on M14 melanoma, 3.26 µM; with SK-MEL-5 melanoma, 3.02 µM; in the assay with UACC-62 melanoma, 3.35 µM; in the assay on RXF 393 renal, 2.88 µM; in the assay on TK-10 renal it was 3.39 µM. In addition, the results for the TGI in the assay on EKVX NSCLC and in the assay with MDA-MB-435 were 3.4 µM and 2.96 µM, respectively.
